Test results from patent publication US12398121B2 (Nuvation Bio Inc., priority 2018, dated 2025).

Key:
AR in LNCaP cytosol = molecular target: T1, AR in LNCaP cytosol (Homo sapiens, UniProt P10275, T878A); assay: AR binding assay (3H-methyltrienolone displacement)
T1 construct: endogenous in cells; host or cells: LNCaP cytosol
T1 sequence (P10275 1-920 T878A): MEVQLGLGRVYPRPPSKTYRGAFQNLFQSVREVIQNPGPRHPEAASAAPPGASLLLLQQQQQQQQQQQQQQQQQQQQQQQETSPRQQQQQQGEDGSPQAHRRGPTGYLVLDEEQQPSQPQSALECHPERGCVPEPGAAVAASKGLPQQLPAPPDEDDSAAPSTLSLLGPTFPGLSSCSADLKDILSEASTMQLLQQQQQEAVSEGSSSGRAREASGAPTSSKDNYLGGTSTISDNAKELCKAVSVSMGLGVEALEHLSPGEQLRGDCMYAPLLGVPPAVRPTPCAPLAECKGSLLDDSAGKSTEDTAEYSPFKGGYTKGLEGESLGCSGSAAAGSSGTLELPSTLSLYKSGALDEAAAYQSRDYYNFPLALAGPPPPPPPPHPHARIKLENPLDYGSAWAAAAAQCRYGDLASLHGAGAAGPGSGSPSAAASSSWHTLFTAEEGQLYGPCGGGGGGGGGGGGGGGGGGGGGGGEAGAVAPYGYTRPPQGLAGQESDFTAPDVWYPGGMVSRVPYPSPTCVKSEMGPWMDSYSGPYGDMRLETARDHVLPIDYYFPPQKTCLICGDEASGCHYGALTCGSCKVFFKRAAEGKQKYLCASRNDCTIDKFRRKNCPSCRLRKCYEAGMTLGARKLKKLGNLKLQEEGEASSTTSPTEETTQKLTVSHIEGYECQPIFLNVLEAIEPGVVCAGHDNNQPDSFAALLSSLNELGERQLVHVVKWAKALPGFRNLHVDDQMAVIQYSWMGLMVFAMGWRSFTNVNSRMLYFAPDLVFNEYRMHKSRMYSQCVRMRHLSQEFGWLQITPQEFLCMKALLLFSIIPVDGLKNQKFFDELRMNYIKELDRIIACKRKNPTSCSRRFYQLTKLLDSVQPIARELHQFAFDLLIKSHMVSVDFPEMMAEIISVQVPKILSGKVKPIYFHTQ
Procedure: The following methods are for evaluating the in vitro biology properties of the test articles. • a. RBC HotSpot Poly(ADP-ribose) Polymerases 1 (PARP1) and Poly(ADP-ribose) Polymerases 2 (PARP2) Assays: The assay principle is radioisotope-based filter binding assay where incorporation of radioisotope-labeled NAD^+ into the substrate captured on filter is detected after washout free NAD^+. Data were analyzed using Excel and GraphPad Prism software for IC50 curve fits. Each assay was conducted with PJ34 as a positive control. • i. PARP1 assay: Human recombinant PARP1 at a final concentration of 2.5 nM was combined with histone H4 (20 μM) and test articles at various concentrations in reaction buffer (50 mM Tris-HCL, pH 8.0, 50 mM NaCl, 10 mM MgCl2, 1 mM DTT, 1% DMSO, and 20 μg/mL activated DNA). The solution was inoculated for 20 min at room temperature and the reaction initiated by adding [adenylate-^32P]-Nicotinamide Adenine Dinucleotide, ^32P-NAD^+ at a final concentration of 10 μM. After incubation for 2 hour at room temperature, the reaction mixture was filtered and washed with 0.75% phosphoric acid for radioactivity detection. • ii. PARP2 assay: Human recombinant PARP2 at a final concentration of 2.5 nM was combined with histone H3 (20 μM) and test articles at various concentrations in reaction buffer (50 mM Tris-HCL, pH 8.0, 50 mM NaCl, 10 mM MgCl2, 1 mM DTT, 1% DMSO, and 20 μg/mL activated DNA). The solution was inoculated for 20 min at room temperature and the reaction was initiated by adding [adenylate-^32P]-Nicotinamide Adenine Dinucleotide, ^32P-NAD^+ at a final concentration of 10 μM. After incubation for 2 hour at room temperature, the reaction mixture was filtered and washed with 0.75% phosphoric acid for radioactivity detection. • b. AR binding assay: AR in LNCaP cytosol was used for determining the binding affinity of test articles and the reference compound—progesterone (Sigma, Cat: E2785, St. Louis, MO). IC50s were determined using 8 concentrations/compound. Cytosol was plated at 200 μg/well (100 μL) into a 96-well conical polypropylene plate (Agilent, Cat: 5042-1385, Santa Clara, CA) and mixed with 3 μL of test compound. After adding 100 μL of ^3H-methyltrienolone (PerkinElmer, Cat: NET590250UC, San Jose, CA), the plate was sealed and shaken at 300 rpm at 4° C. for 24 hours. Post incubation, 100 μL of radioligand adsorption buffer containing 10 mM Tris-HCl, pH 7.4; 1.5 mM EDTA; 1 mM DTT; 0.25% charcoal; 0.0025% dextran was added to individual well. Plate was shaken for 15 min at 4′C followed by centrifugation at 3000 rpm for 30 min at 4° C. 150 μL of supernatant was transferred into scint-tube (PerkinElmer, Cat: 6000192) and mixed with 2 mL of Ultima Gold Cocktail (PerkinElmer, Cat: 6013329). Radioactivity was counted using a TriCarb 2910 TR scintillation counter (PerkinElmer). Inhibition of the radioactivity by test articles were calculated using the equation below: % Inhibition=(1−(Assay well−Average_LC)/(Average_HC−Average_LC))×100%.
IC50 values were calculated and graphed using the model “log(inhibitor) vs. response—Variable slope” included in GraphPad Prism 5 (San Diego, CA). The Ki values were further calculated using the equation below where [L] was the radioligand concentration (1 nM) using in this study. Kd value was 0.332 nM. Ki=IC50/(1+[L]/Kd) c. AR transactivation: Human AR cloned into a CMV vector backbone was used for the transactivation study. HEK-293 cells were plated at 80,000 cells per well of a 24 well plate in DME+5% csFBS. Twenty four hours later, the cells were transfected using Lipofectamine (Invitrogen, Carlsbad, CA) with 0.25 μg GRE-LUC, 0.01 μg CMV-LUC (renilla luciferase) and 25 ng of the AR in OPTIMEM medium. The cells were treated 24 hrs after transfection with various ligands (10^−12 to 10^−5 M final concentrations) and luciferase assay were performed 48 hours after transfection. […]

DNA-PK = molecular target: T2, DNA-PK (Homo sapiens, UniProt P78527); assay: DNA-PK inhibition (Reaction Biology HotSpot Kinase Assay, radioisotope filter binding); format: biochemical; settings: 5 nM DNA-PK, 20 μM DNA-PKtide, 33P-ATP
T2 construct: purchased Invitrogen, Carlsbad, CA PR9107A

## CCN1C(=O)CNc2ncc(-c3ccc(-c4ncn(CCCCCCNC(=O)c5ccc(N6C(=S)N(c7ccc(C#N)c(C(F)(F)F)c7)C(=O)C6(C)C)cc5F)n4)nc3C)nc21 [Compound 3.1, 4-(3-(4-cyano-3-(trifluoromethyl)phenyl)-5,5-dimethyl-4-oxo-2-thioxoimidazolidin-1-yl)-N-(6-(3-(5-(8-ethyl-7-oxo-5,6,7,8-tetrahydropyrazino[2,3-b]pyrazin-2-yl)-6-methylpyridin-2-yl)-1H-1,2,4-triazol-1-yl)hexyl)-2-fluorobenzamide]
AR in LNCaP cytosol
  Ki: 21 nM
DNA-PK
  IC50: > 10000 nM

## CCN1C(=O)CN(CCCCCCNC(=O)c2ccc(N3C(=S)N(c4ccc(C#N)c(C(F)(F)F)c4)C(=O)C3(C)C)cc2F)c2ncc(-c3ccc(-c4nc[nH]n4)nc3C)nc21 [Compound 3.2, 4-(3-(4-cyano-3-(trifluoromethyl)phenyl)-5,5-dimethyl-4-oxo-2-thioxoimidazolidin-1-yl)-N-(6-(4-ethyl-6-(2-methyl-6-(1H-1,2,4-triazol-3-yl)pyridin-3-yl)-3-oxo-3,4-dihydropyrazino[2,3-b]pyrazin-1(2H)-yl)hexyl)-2-fluorobenzamide]
AR in LNCaP cytosol
  Ki: 19 nM
DNA-PK
  IC50: > 10000 nM
